The subject of this assay is CEM cells HIV-1 protection, formazan growth assay. Nature of the assay: NCI AIDS Antiviral Assay. Conditions: for IC50: measured here: growth of uninfected CEM cells. An outline of the steps:
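Soluble formazan readout of cell growth; CEM cells ± HIV-1; 5 drug concs. ≥50% protection → retest; ≥50% again = moderately active; reproducible 100% = confirmed active.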

Calls of active or inactive are those of the source.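 How the source made its calls: active means compounds giving half or more protection of infected cells from virus-caused growth loss, again on retest; inactive means the rest.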 A value given as a limit tells only on which side of the number the result lay.

For orientation: EC50 means the concentration that produces a half-maximal response. The term IC50 denotes the concentration that inhibits the measured activity by half. A higher IC50 goes with lower potency.

Take `Cc1cc(N(CCC#N)CCC#N)ccc1N=Nc1cccc(C(=O)O)c1`: the EC50 was greater than 72.4 µM and the IC50 is 57.5 µM.
Turning to `CC(=O)CCn1[nH]c(=O)c(Cl)c(Cl)c1=O`, the EC50 was greater than 1000 µM and the half-maximal inhibitory concentration (IC50) is greater than 1000 µM.
Take `Cc1ccc(C)c(NC(=O)C(=O)C2C(=O)C3=C(CC2(C)C)Nc2ccccc2S3)c1` (configuration not stated): the EC50 is greater than 85.1 µM and the IC50 is greater than 85.1 µM.
Turning to `C1CSC[C@H]2COC[C@@H](CSCCS1)S2`, the EC50 is greater than 631 µM and the half-inhibitory concentration (IC50) was greater than 631 µM.
As for `C/C(=N/NC(=S)N1CCCC1)c1cccc(/C(C)=N\NC(=S)N2CCCC2)n1`, the EC50 is greater than 2 µM and the IC50 is 0.123 µM.
`Cc1ccccc1NC(=O)C(=O)CC(=O)C1CCOC1=O` (configuration not stated): the outcome was inactive.
Turning to `C=CCN1CCC(OC(=O)C(O)(C#CC)C2CCCC2)CC1` (configuration not stated), the EC50 was greater than 200 µM and the IC50 was greater than 200 µM.
Turning to `CN(C)c1ccc(C2NCCc3c2[nH]c2ccccc32)cc1` (configuration not stated), the EC50 is greater than 200 µM and the half-inhibitory concentration (IC50) is 25.1 µM.
The like results for `CCC/C=[N+](\[O-])[C@@H]1CC(n2cc(C)c(=O)[nH]c2=O)OC1CO[Si](C)(C)C(C)(C)C` (some centres not stated) were, in that order, greater than 200 µM and 107 µM.
On to `CCOC(=O)CCC1(C(=O)OCC)CCCC1=O` (configuration not stated), for which the EC50 is greater than 263 µM and the IC50 was greater than 263 µM.
Turning to `CC12CCC(c3sc(N)c(C#N)c31)C2(C)C` (configuration not stated), the EC50 is greater than 191 µM and the concentration for half-maximal inhibition (IC50) came out at 35.5 µM.
Consider `CN(C)CCCn1c2c3ccccc3ccc2c2oc(=O)c3ccccc3c21`, for which the EC50 was greater than 33.1 µM and the IC50 was determined as 1.62 µM.
On the same counts, the results for `C=CCCC(O)c1cc(C)c(O)c(C)c1` (configuration not stated) are greater than 457 µM and 229 µM.
As for `CCN(CC)C(=O)N[C@@H](CC(C)C)C(=O)NC`, the EC50 is greater than 200 µM and the IC50 was greater than 200 µM.
With `CCN(CC)c1ccc(C(=C2C=CC(=[N+](CC)CC)C=C2)c2ccc(N(CC)CC)cc2)cc1`, the result was inactive.
Take `c1ccc2c3c([nH]c2c1)C1C2CCCCN2C(c2ccncc2)N1CC3` (configuration not stated): the EC50 is greater than 75.9 µM and the 50% inhibitory concentration (IC50) worked out at 42.7 µM.
As for `COC(=O)C1(Cc2ccc3c(c2)CCC3)Cc2ccccc2C1=O` (configuration not stated), the EC50 is greater than 200 µM and the IC50 came to 10.7 µM.
On the same counts, the results for `O=C(c1ccco1)N1CCCN(C(=O)c2ccco2)C1=S` are greater than 200 µM and 28.2 µM.
The like results for `O=C(O)c1c(CC(Cc2ccccc2)C(=O)O)ccc2c1CCC2` (configuration not stated) were, in that order, greater than 200 µM and greater than 200 µM.
The like results for `NNC(=O)CNC(=O)CSc1nnc(COc2ccc(Cl)cc2)n1-c1ccccc1` were, in that order, greater than 200 µM and 56.2 µM.
For the molecule `COC(=O)n1c(=O)n(-c2ccccc2)c(=O)n1C(=O)OC`, the EC50 was 155 µM and the IC50 is 195 µM.
For `Cc1cc(C)c(S(=O)(=O)Sc2nnnn2C)c(C)c1`, the EC50 is greater than 603 µM and the IC50 worked out at 126 µM.
The like results for `O=C(Cc1ccccc1)NN1C(=O)/C(=C\c2ccccc2O)SC1=Nc1ccccc1` were, in that order, greater than 219 µM and 174 µM.
The like results for `O=C1/C(=C/c2ccccc2)Oc2cc(O)ccc21` were, in that order, greater than 200 µM and 110 µM.
The like results for `Cc1cc(C)c2cc(=O)oc-2c(C)c1` were, in that order, greater than 93.3 µM and greater than 93.3 µM.
In the case of `CCOP(=O)(OCC)C(c1ccc(F)cc1)N(C(=O)NC(F)(F)F)c1cccc(C(F)(F)F)c1` (configuration not stated), the EC50 is greater than 200 µM and the IC50 was found to be 145 µM.
The like results for `O=C1O[C@H]2C3C4CCC(C4[C@@H]2I)[C@H]13` (some centres not stated) were, in that order, greater than 200 µM and greater than 200 µM.
Take `CC(NC(=O)OC(C)(C)C)C(=O)C(N)=O` (configuration not stated): the EC50 is greater than 200 µM and the half-maximal inhibitory concentration (IC50) is greater than 200 µM.
Turning to `COC(=O)c1c/c(=N\NC(=O)CC(=O)Nc2ccccc2Cl)c2ccccc2o1`, the EC50 was 166 µM and the IC50 worked out at 302 µM.
For `COc1cc(C2c3cc4c(cc3OC(N3CCOCC3)C2C)OCO4)cc(OC)c1O` (configuration not stated), the EC50 was greater than 200 µM and the IC50 turned out to be 8.51 µM.
The like results for `CCCc1cc(=O)oc2c3c(c4c(c12)OC(C)(C)CC4)O[C@H](C)[C@@H](C)[C@@H]3O` were, in that order, 0.316 µM and 8.13 µM.
The like results for `O=[N+]([O-])c1ccc(Cl)c(C2SCc3nc4ccccc4n32)c1` (configuration not stated) were, in that order, greater than 39.8 µM and 33.1 µM.
On the same counts, the results for `Nc1nc(N)c(Br)c(Nc2ccc(Cl)c(Cl)c2)n1` are 52.5 µM and 155 µM.
Take `[Ni+2].[O-]/C(=N\N=C\c1ccccn1)c1ccccc1O.[O-]/C(=N\N=C\c1ccccn1)c1ccccc1O`: the EC50 is greater than 200 µM and the half-maximal inhibitory concentration (IC50) stood at 6.17 µM.
On the same counts, the results for `O=[N+]([O-])c1ccc2n[nH]nc2c1` are greater than 200 µM and 182 µM.
The like results for `N#CC1(c2ccccc2)CCN(Cc2ccccc2)CC1` were, in that order, greater than 115 µM and 60.3 µM.
On the same counts, the results for `COC1/C=C/OC2(C)Oc3c(C)c(O)c4c(O)c(c(/C=N/N5CCC(N6CCCCC6)CC5)c(O)c4c3C2=O)NC(=O)C(C)=C/C=C/C(C)C(O)C(C)C(O)C(C)C(OC(C)=O)C1C` (configuration not stated) are greater than 75.9 µM and greater than 75.9 µM.
For `C#CCOCn1cnc2c(=S)nc[nH]c21`, the EC50 was greater than 9.12 µM and the concentration for half-maximal inhibition (IC50) is greater than 9.12 µM.
For `Ic1ccccc1SSc1ccccc1I`, the EC50 was greater than 200 µM and the half-maximal inhibitory concentration (IC50) was 8.71 µM.
For the molecule `NC(=O)CC(NC(=O)c1ccccc1SC(=O)CCCC[n+]1ccccc1)C(N)=O` (configuration not stated), the half-maximal effective concentration (EC50) was 32.4 µM and the IC50 is greater than 200 µM.
On the same counts, the results for `CCOC(=O)c1c(SC(=O)c2ccc(C(C)(C)C)cc2)n(-c2ccccc2)c(=S)n(-c2ccccc2)c1=O` are greater than 200 µM and 27.5 µM.
The like results for `C(=N\Nc1nnc(-c2nnc(N/N=C/c3ccccc3)o2)o1)/c1ccccc1` were, in that order, greater than 200 µM and greater than 200 µM.
